Results taken from US20120004228A1, “Bis Aromatic Compounds for Use as LTC4 Synthase Inhibitors” (BIOLIPOX AB, priority 2009, published 2012).

These compounds were tested against T1, Recombinant human LTC4 synthase (Homo sapiens, UniProt Q16873) (assay: In vitro LTC4 synthase assay (LTA4 to LTC4, HTRF detection)). Conditions: not given.
T1 construct: made in house; host or cells: Pichia pastoris ('Piccia pastoralis' [sic])
T1 sequence (Q16873 1-150): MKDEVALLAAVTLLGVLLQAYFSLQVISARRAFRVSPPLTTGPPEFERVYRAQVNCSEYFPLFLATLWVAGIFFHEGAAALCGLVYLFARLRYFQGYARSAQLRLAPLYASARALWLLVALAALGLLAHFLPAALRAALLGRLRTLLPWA
Type: biochemical
Method: In the assay, LTC4 synthase catalyses the reaction where the substrate LTA4 is converted to LTC4. Recombinant human LTC4 synthase is expressed in Piccia pastoralis and the purified enzyme is dissolved in 25 mM tris-buffer pH 7.8 supplemented with 0.1 mM glutathione (GSH) and stored at −80° C. The assay is performed in phosphate buffered saline (PBS) pH 7.4 and 5 mM GSH in 384-well plates.
The following is added chronologically to each well:
1. 48 μL LTC4 synthase in PBS with 5 mM GSH. The total protein concentration in this solution is 0.5 μg/mL. 2. 1 μL inhibitor in DMSO (final concentration 10 μM). 3. Incubation of the plate at room temperature for 10 min. 4. 1 μL LTA4 (final concentration 2.5 μM). 5. Incubation of the plate at room temperature for 5 min. 6. 10 μL of the incubation mixture is analysed using homogenous time resolved fluorescent (HTRF) detection.

IC50 [nM]	SMILES
183	CCN(CC)c1ccc(Oc2cc(C(=O)O)cc(C(=O)c3ccc(N(C)c4ccc(Cl)cc4)cc3)c2)cc1 [8:15, 3-{4-[(4-Chlorophenyl)(methyl)amino]benzoyl}-5-(4-(diethylamino)phenoxy)-benzoic acid]
164	CN(c1ccc(Cl)cc1)c1ccc(C(=O)c2cc(C(=O)O)cc(N(CC3CCCO3)c3ccccc3)c2)nc1 (stereo not shown) [9:41, 3-{5-[(4-Chlorophenyl)(methyl)amino]picolinoyl}-5-{phenyl[(2-tetrahydrofuryl)-methyl]amino}benzoic acid]
466	COCC(=O)N(c1ccccc1)c1cc(C(=O)O)cc(C(=O)c2ccc(N(C)c3ccc(Cl)cc3)cn2)c1 [9:26, 3-{5-[(4-Chlorophenyl)(methyl)amino]picolinoyl}-5-(2-methoxy-N-phenylacet-amido)benzoic acid]
252	CN(c1ccc(Cl)cc1)c1ccc(C(=O)c2cc(C(=O)O)cc(N(CCCC(F)(F)F)c3ccccc3)c2)cc1 [10:37, 3-{4-[(4-Chlorophenyl)(methyl)amino]benzoyl}-5-[phenyl(4,4,4-trifluorobutyl)-amino]benzoic acid]
120	Cc1ccc(Oc2cc(C(=O)O)cc(C(=O)c3ccc(N(C)c4ccc(Cl)cc4)cn3)c2)cc1 [8:6, 3-{5-[(4-Chlorophenyl)(methyl)amino]picolinoyl}-5-(p-tolyloxy)benzoic acid]
123	COc1ccc(CN(C)c2cc(C(=O)O)cc(C(=O)c3ccc(N(C)c4ccc(Cl)cc4)cn3)c2)cc1 [9:9, 3-{5-[(4-Chlorophenyl)(methyl)amino]picolinoyl}-5-[(4-methoxybenzyl)(methyl)-amino]benzoic acid]
538	CN(c1ccc(Cl)cc1)c1ccc(C(=O)c2cc(C(=O)O)cc(C(=O)Nc3ccccc3Cl)c2)nc1 [2:2, 3-{5-[(4-Chlorophenyl)(methyl)amino]picolinoyl}-5-(2-chlorophenyl-carbamoyl)-benzoic acid]
171	CN(c1ccc(Cl)cc1)c1ccc(C(=O)c2cc(Oc3cccc(OC(F)(F)F)c3)cc(C(=O)O)c2)cc1 [8:10, 3-{4-[(4-Chlorophenyl)(methyl)amino]benzoyl}-5-[3-(trifluoromethoxy)phenoxy]-benzoic acid]
834	CN(c1ccc(Cl)cc1)c1ccc(C(=NO)c2cc(Oc3ccccc3)cc(C(=O)O)c2)cc1 (mixture of isomers) [Example 17, 3-({4-[(4-Chlorophenyl)(methyl)amino]phenyl}(hydroxyimino)methyl)-5-phenoxy-benzoic acid]
176	CC(C)CN(c1ccccc1)c1cc(C(=O)O)cc(C(=O)c2ccc(N(C)c3ccc(Cl)cc3)cc2)c1 [10:35, 3-{4-[(4-Chlorophenyl)(methyl)amino]benzoyl}-5-[isobutyl(phenyl)amino]-benzoic acid]
74	COCCN(c1ccccc1)c1cc(C(=O)O)cc(C(=O)c2ccc(N(C)c3ccc(Cl)cc3)cc2)c1 [10:26, 3-{4-[(4-Chlorophenyl)(methyl)amino]benzoyl}-5-[(2-methoxyethyl)(phenyl)-amino]benzoic acid]
31	CN(c1ccc(Cl)cc1)c1ccc(C(=O)c2cc(C(=O)O)cc(N(CC(C)(C)O)c3ccccc3)c2)nc1 [Example 9:27, 3-{5-[(4-Chlorophenyl)(methyl)amino]picolinoyl}-5-[(2-hydroxy-2-methylpropyl)-(phenyl)amino]benzoic acid]
625	O=C(O)c1cc(Nc2ccc(Cl)cc2)ccc1C(=O)c1ccc(Nc2ccc(Cl)cc2)cc1 [Example 6:1, 5-(4-Chlorophenylamino)-2-[4-(4-chlorophenylamino)benzoyl]benzoic acid]
298	CN(c1ccc(Cl)cc1)c1ccc(C(=O)c2cc(Cc3ccccc3)cc(C(=O)O)c2)nc1 [Example 13, 3-Benzyl-5-{5-[(4-chlorophenyl)(methyl)amino]picolinoyl}benzoic acid]
248	CN(c1ccc(Cl)cc1)c1ccc(C(=O)c2cc(Nc3cccc(Cl)c3)cc(C(=O)O)c2)nc1 [Example 9:2, 3-{5-[(4-Chlorophenyl)(methyl)amino]picolinoyl}-5-(3-chlorophenylamino)-benzoic acid]
360	CN(c1ccc(Cl)cc1)c1ccc(C(=O)c2cc(NCc3ccccc3)cc(C(=O)O)c2)cc1 [10:10, 3-Benzylamino-5-{4-[(4-chlorophenyl)(methyl)amino]benzoyl}benzoic acid]
75	CN(c1ccc(Cl)cc1)c1ccc(C(=O)c2cc(NCc3ccc(Cl)cc3Cl)cc(C(=O)O)c2)cc1 [10:14, 3-{4-[(4-Chlorophenyl)(methyl)amino]benzoyl}-5-(2,4-dichlorobenzylamino)-benzoic acid]

IC50 [nM]	SMILES
41	CN(c1ccc(Cl)cc1)c1ccc(C(=O)c2cc(C(=O)O)cc(N(C)c3ccc(Cl)cc3)c2)cc1 [Example 10:1, 3-[(4-Chlorophenyl)(methyl)amino]-5-{4-[(4-chlorophenyl)(methyl)amino]benzoyl}-benzoic acid]
462	CN(c1ccc(Cl)cc1)c1ccc(C(=O)c2cc(OCc3ccccc3)cc(C(=O)O)c2)nc1 [11:2, 3-Benzyloxy-5-{5-[(4-chlorophenyl)(methyl)amino]picolinoyl}benzoic acid]
68	CN(c1ccc(Cl)cc1)c1ccc(C(=O)c2cc(C(=O)O)cc(N(CC3(C)COC3)c3ccccc3F)c2)cc1 [10:28, 3-{4-[(4-Chlorophenyl)(methyl)amino]benzoyl}-5-{(2-fluorophenyl)[(3-methyl-oxetan-3-yl)methyl]amino}benzoic acid]
197	CN(c1ccc(Cl)cc1)c1ccc(C(=O)c2cc(C(=O)O)cc(N(C)c3ccc4c(c3)OCO4)c2)nc1 [9:30, 3-{5-[(4-Chlorophenyl)(methyl)amino]picolinoyl}-5-[(3,4-methylenedioxy-phenyl)(methyl)amino]benzoic acid]
30	CN(c1ccc(Cl)cc1)c1ccc(C(=O)c2cc(Oc3ccc(F)c(F)c3)cc(C(=O)O)c2)cc1 [Example 8:9, 3-{4-[(4-Chlorophenyl)(methyl)amino]benzoyl}-5-(3,4-difluorophenoxy)benzoic acid]
353	COc1ccc(Nc2cc(C(=O)O)cc(C(=O)c3ccc(N(C)c4ccc(Cl)cc4)cn3)c2)cc1 [9:32, 3-{5-[(4-Chlorophenyl)(methyl)amino]picolinoyl}-5-(4-methoxyphenylamino)-benzoic acid]
224	CN(c1ccc(Cl)cc1)c1ccc(C(=O)c2ccc(Nc3ccc(Cl)cc3)cc2)c(C(=O)O)c1 [6:3, 2-[4-(4-Chlorophenylamino)benzoyl]-5-[(4-chlorophenyl)(methyl)amino]-benzoic acid]
745	CON=C(c1ccc(N(C)c2ccc(Cl)cc2)cc1)c1cc(Oc2ccccc2)cc(C(=O)O)c1 (mixture of isomers) [Example 18, 3-({4-[(4-Chlorophenyl)(methyl)amino]phenyl}(methoxyimino)methyl)-5-phenoxybenzoic acid]
682	CN(c1ccc(Cl)cc1)c1ccc(C(=O)c2cc(C(=O)O)cc(C(=O)Nc3cc(F)ccc3F)c2)cc1 [2:15, 3-{4-[(4-Chlorophenyl)(methyl)amino]benzoyl}-5-(2,5-difluorophenyl-carbamoyl)benzoic acid]
147	CN(c1ccc(Cl)cc1)c1ccc(C(=O)c2cc(C(=O)O)cc(N(C)c3cccc(Cl)c3)c2)nc1 [Example 9:1, 3-[(3-Chlorophenyl)(methyl)amino]-5-{5-[(4-chlorophenyl)(methyl)amino]-picolinoyl}benzoic acid]
50	CN(c1ccc(Cl)cc1)c1ccc(C(=O)c2cc(C(=O)O)cc(N(CC3(C)COC3)c3ccccc3)c2)nc1 [9:15, 3-{5-[(4-Chlorophenyl)(methyl)amino]picolinoyl}-5-{[(3-methyloxetan-3-yl)-methyl](phenyl)amino}benzoic acid]
33	CCN(c1ccccc1)c1cc(C(=O)O)cc(C(=O)c2ccc(N(C)c3ccc(Cl)cc3)cc2)c1 [10:19, 3-{4-[(4-Chlorophenyl)(methyl)amino]benzoyl}-5-[ethyl(phenyl)amino]benzoic acid]
125	CN(c1ccc(Cl)cc1)c1ccc(C(=O)c2cc(Nc3ccc(C(F)(F)F)cc3Cl)cc(C(=O)O)c2)cc1 [10:11, 3-[2-Chloro-4-(trifluoromethyl)phenylamino]-5-{4-[(4-chlorophenyl)(methyl)-amino]benzoyl}benzoic acid]
424	CN(c1ccc(Cl)cc1)c1ccc(C(=O)c2cc(C(=O)O)cc(C(=O)Nc3ccc4c(c3)OC(F)(F)O4)c2)cc1 [2:12, 3-{4-[(4-Chlorophenyl)(methyl)amino]benzoyl}-5-[3,4-(difluoromethylene-dioxy)phenylcarbamoyl]benzoic acid]
77	CN(c1ccc(Cl)cc1)c1ccc(C(=O)c2cc(Oc3ccccc3Cl)cc(C(=O)O)c2)nc1 [8:8, 3-(2-Chlorophenoxy)-{5-[(4-chlorophenyl)(methyl)amino]picolinoyl}benzoic acid]
80	CN(c1ccc(Cl)cc1)c1ccc(C(=O)c2cc(Nc3ccccc3)cc(C(=O)O)c2)cc1 [10:8, 3-{4-[(4-Chlorophenyl)(methyl)amino]benzoyl}-5-phenylamino-benzoic acid]
390	O=C(O)c1cc(Nc2ccc(Cl)cc2)ccc1C(=O)c1ccc(Nc2ccc(C(=O)C3CC3)cc2)cc1 [6:2, 5-(4-Chlorophenylamino)-2-[4-(4-cyclopropylcarbonylphenylamino)-benzoyl]benzoic acid]

Same assay, conditions: 5 min; total concentration of title compound in the assay 10 μM

inhibition at 10 µM [%]	SMILES
96	O=C(O)c1cc(Nc2ccc(Cl)cc2)ccc1C(=O)c1ccc(Nc2ccc(Cl)cc2)cc1 [Example 6:1, 5-(4-Chlorophenylamino)-2-[4-(4-chlorophenylamino)benzoyl]benzoic acid]
99	CN(c1ccc(Cl)cc1)c1ccc(C(=O)c2ccc(Nc3ccc(Cl)cc3)cc2)c(C(=O)O)c1 [6:3, 2-[4-(4-Chlorophenylamino)benzoyl]-5-[(4-chlorophenyl)(methyl)amino]-benzoic acid]
100	O=C(O)c1cc(Nc2ccc(Cl)cc2)ccc1C(=O)c1ccc(Nc2ccc(C(=O)C3CC3)cc2)cc1 [6:2, 5-(4-Chlorophenylamino)-2-[4-(4-cyclopropylcarbonylphenylamino)-benzoyl]benzoic acid]
